In ChEMBL document CHEMBL6096628, “Discovery of a Highly Potent and Selective BRD9 PROTAC Degrader Based on E3 Binder Investigation for the Treatment of Hematological Tumors” (J Med Chem, 2024):
Activity calls are given as the source filed them. The rule behind the calls is not given here.

Experiments:
[1] = Cmax in ICR mouse at 20 mg/kg, IG administered via gavage and measured after 24 hrs by LC-MS analysis; assay type: ADME, organism-based; conditions: in vivo, po
MV4-11 [2] = experiment: Downregulation of BRD9 protein expression in human MV4-11 cells by proteomic analysis; assay type: functional, cell-based
MV4-11 [3] = experiment: Upregulation of C-myc expression level in human MV4-11 cells at 0.1 to 10 nM measured after 24 to 48 hrs by Western blot analysis; assay type: functional, cell-based; conditions: dose 0.1-10 nM, time 24-48 hrs

SMILES: COc1cc(-c2cn(C)c(=O)c3ccccc23)cc(OC)c1CN1CCC(CN2CCC(c3ccc4c5c(cccc35)C(=O)N4C3CCC(=O)NC3=O)CC2)CC1 (stereo not drawn)
- Cmax [1]: 127 ng/mL
- Activity (MV4-11 [2]): Active
- Activity (MV4-11 [3]): Active
